# Assay results reported in patent US20090023718A1 (Aton Pharma, Inc., priority 2003, published 2009).
# Where two headings read alike, the source gives them in different places.
# Key:
# [1] = tested on: murine erythroleukemia cell line SC9; assay: MTS assay (Cell Titer 96 Aqueous One Solution Cell Proliferation Assay); assay type: cell-based; settings: Mus musculus; SC9 cells, 48 hours incubation with increasing concentrations, inhibition of proliferation; mean ± spread (N)
# Method: The novel compounds of the present invention were tested for their ability to inhibit proliferation of the murine erythroleukemia cell line SC9.
# The MTS assay, also referred to as the Cell Titer 96 Aqueous One Solution Cell Proliferation Assay, is a colorimetric method for determining the number of viable cells in proliferation, cytotoxicity or chemosensitivity assays. The MTS reagent contains a novel tetrazolium compound [3-(4,5-dimethylthiazol-2-yl)-5-(3-carboxymethoxyphenyl)-2-(4-sulfophenyl)-2H-tetrazolium, inner salt] and electron coupling reagent (phenazine ethosulfate; PES). Murine erythroleukemia cells (SC-9) were incubated with vehicle or increasing concentrations of compound for 48 hours. Cell proliferation was quantitated by adding a small amount of the MTS reagent directly to culture wells, incubating for 1-4 hours and then recording the absorbance at 490 nm with a 96-well plate reader. The quantity of formazan product, as measured by […] absorbance, is directly proportional to the number of living cells in culture.
# [2] = biological target: T1, histone deacetylase, subtype 1 (HDAC1) (Homo sapiens, UniProt Q13547); assay: HDAC1-Flag assay (in vitro fluorescent deacetylation assay); assay type: biochemical; settings: epitope-tagged human HDAC1 complex, substrate at Km, mean ± spread (N), read-out: HDAC Inhibition (IC50) nm
# T1 construct: Flag; made in house
# Method: Novel compounds were tested for their ability to inhibit histone deacetylase, subtype 1 (HDAC1) using an in vitro deacetylation assay. The enzyme source for this assay was an epitope-tagged human HDAC1 complex immuno-purified from stably expressing mammalian cells. The substrate consisted of a commercial product containing an acetylated lysine side chain (BIOMOL Research Laboratories, Inc., Plymouth Meeting, Pa.). Upon deacetylation of the substrate by incubation with the purified HDAC1 complex, a fluorophore is produced that is directly proportional to the level of deacetylation.
# [3] = Table 1, compounds of formula II
# T1 sequence (Q13547 whole entry): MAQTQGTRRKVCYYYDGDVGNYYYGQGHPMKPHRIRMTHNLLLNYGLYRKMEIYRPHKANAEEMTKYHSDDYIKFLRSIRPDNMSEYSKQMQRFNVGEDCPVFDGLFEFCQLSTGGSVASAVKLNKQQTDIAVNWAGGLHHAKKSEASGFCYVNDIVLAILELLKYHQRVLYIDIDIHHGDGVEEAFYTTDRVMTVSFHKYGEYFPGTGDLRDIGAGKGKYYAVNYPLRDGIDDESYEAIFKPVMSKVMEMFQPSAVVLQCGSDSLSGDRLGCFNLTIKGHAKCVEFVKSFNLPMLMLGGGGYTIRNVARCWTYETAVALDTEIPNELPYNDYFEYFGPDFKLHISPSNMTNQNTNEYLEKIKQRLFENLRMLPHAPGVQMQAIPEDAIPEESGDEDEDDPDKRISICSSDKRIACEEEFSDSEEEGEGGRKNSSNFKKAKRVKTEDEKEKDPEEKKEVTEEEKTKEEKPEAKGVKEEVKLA
Compound,IC50 [1] [nM],"IC50 [2, 3] [nM]","IC50 ([2]; Table 2, compounds of formula III) [nM]","IC50 ([2]; Table 4, compounds of formula V) [nM]","IC50 ([2]; Table 5, other HDAC inhibitors of formula I) [nM]"
"O=C(CCCCCC(=O)N(CC(=O)NCCc1ccccc1)CC(=O)Nc1ccccc1)NO [Compound 8, Heptanedioic acid hydroxyamide (phenethylcarbamoyl-methyl)-phenylcarbamoylmethyl-amide]",852,26 ± 5.6,,,
"O=C(CCCCCC(=O)N(CC(=O)NC1CCc2ccccc21)CC(=O)NC1CCc2ccccc21)NO (stereo not drawn) [Compound 37, Heptanedioic acid bis-(indan-1-ylcarbamoylmethyl)-amide hydroxyamide]",388,71 ± 1.4,,,
"O=C(CCCCCC(=O)N(CC(=O)Nc1ccccc1)CC(=O)NC1CCCCC1)NO [Compound 11, Heptanedioic acid cyclohexylcarbamoylmethyl-phenylcarbamoylmethyl-amide hydroxyamide]",705,34.5 ± 12.7,,,
"O=C(CCCCCC(=O)N(CC(=O)Nc1cccc2cccnc12)CC(=O)Nc1cccc2cccnc12)NO [Compound 9, Heptanedioic acid bis-(quinolin-8-ylcarbamoylmethyl)-amide hydroxyamide]",52 ± 24.9,26.5 ± 6.3,,,
"O=C(CCCCCC(=O)N(CC(=O)Nc1nc2ccc(F)cc2s1)CC(=O)Nc1nc2ccc(F)cc2s1)NO [Compound 39, Heptanedioic acid bis-[(6-fluoro-benzothiazol-2-ylcarbamoyl)-methyl]-amide hydroxyamide]",346,31.5 ± 12,,,
"O=C(CCCCCC(=O)N(CC(=O)Nc1nc2ccc(Cl)cc2s1)CC(=O)Nc1nc2ccc(Cl)cc2s1)NO [Compound 35, Heptanedioic acid bis-[(6-chloro-benzothiazol-2-ylcarbamoyl)-methyl]-amide hydroxyamide]",645,10.6 ± 7.7,,,
"Cc1cccc2sc(NC(=O)CN(CC(=O)Nc3nc4c(C)cccc4s3)C(=O)CCCCCC(=O)NO)nc12 [Compound 36, Heptanedioic acid bis-[(4-methyl-benzothiazol-2-ylcarbamoyl)-methyl]-amide hydroxyamide]",275 ± 19,14.5 ± 4.9,,,
"O=C(CCCCCC(=O)N(CC(=O)Nc1ccccc1)CC(=O)Nc1ccccc1)NO [Compound 6, Heptanedioic acid bis-phenylcarbamoylmethyl-amide hydroxyamide]",304 ± 83.4,20.5 ± 0.7,,,
"O=C(CCCCCC(=O)N(CC(=O)Nc1ccccc1)CC(=O)Nc1cccc2cccnc12)NO [Compound 7, Heptanedioic acid hydroxyamide phenylcarbamoylmethyl-(quinolin-8-ylcarbamoylmethyl)-amide]",46 ± 10.9,25 ± 21.2,,,
CN(CCCCCC(=O)NO)CC(=O)NCc1ccccc1 [Compound 85],,,,,571 ± 52.3

# More lines, now with the values ahead:
IC50 [1] [nM],"IC50 [2, 3] [nM]","IC50 ([2]; Table 2, compounds of formula III) [nM]","IC50 ([2]; Table 4, compounds of formula V) [nM]","IC50 ([2]; Table 5, other HDAC inhibitors of formula I) [nM]",Compound
50 ± 27.7,9.5 ± 4.9,,,,"O=C(CCCCCC(=O)N(CC(=O)Nc1nc2ccccc2s1)CC(=O)Nc1nc2ccccc2s1)NO [Compound 3, Heptanedioic acid bis-(benzothiazol-2-ylcarbamoylmethyl)-amide hydroxyamide]"
332,,18.5 ± 3.5,,,"O=C(CCCCCCN(CC(=O)Nc1ccccc1)CC(=O)Nc1ccccc1)NO [Compound 41, 7-(Bis-phenylcarbamoylmethyl-amino)-heptanoic acid hydroxyamide]"
934,,,159 ± 14.1,,O=C(CCCCCCN(CCc1ccccc1)Cc1ccccc1)NO [Compound 81]
586,22.5 ± 16.2,,,,"O=C(CCCCCC(=O)N(CC(=O)Nc1ccc2c(c1)OCO2)CC(=O)Nc1ccc2c(c1)OCO2)NO [Compound 29, Heptanedioic acid bis-(benzo[1,3]dioxol-5-ylcarbamoylmethyl)-amide hydroxyamide]"
397 ± 98.2,7.6 ± 5.6,,,,"COc1ccc2nc(NC(=O)CN(CC(=O)Nc3nc4ccc(OC)cc4s3)C(=O)CCCCCC(=O)NO)sc2c1 [Compound 34, Heptanedioic acid bis-[(6-methoxy-benzothiazol-2-ylcarbamoyl)-methyl]-amide hydroxyamide]"
340,89.5 ± 12,,,,"O=C(CCCCCC(=O)N(CC(=O)Nc1ccc(C(F)(F)F)cc1)CC(=O)Nc1ccc(C(F)(F)F)cc1)NO [Compound 25, Heptanedioic acid bis-[(4-trifluoromethyl-phenylcarbamoyl)-methyl]-amide hydroxyamide]"
128,16,,,,"O=C(CCCCCC(=O)N(CC(=O)Nc1ccc(F)cc1)CC(=O)Nc1ccc(F)cc1)NO [Compound 4, Heptanedioic acid bis-[(4-fluoro-phenylcarbamoyl)-methyl]-amide hydroxyamide]"
